From US20150118215A1, “Methods of Inhibiting Cell Proliferation” (The General Hospital Corporation, priority 2012, published 2015)
Read-outs that look alike come from different tables or passages of the source.

Experiments:
Human NSCLC A549 cells = experiment: Cell proliferation assays (MTT, direct cell counting); assay type: cell-based; settings: A549, wild-type EGFR, KRas-G12S; three days treatment
Procedure: Cell Proliferation Assays—
First, MTT proliferation assay was carried out using cell growth determination kit according to manufacturer instructions (Sigma). Human NSCLC A549 cells which are expressing wild-type EGFR with KRas-G12S activation mutation were studied in these experiments. […] Medium was changed daily for three days, and cells were stained with MTT and DAPI when indicated.
Second, direct cells counting assays were also performed as follows. Microscopic images of 0.317 mm^2 area each well were acquired for MTT stained cells and cells were counted using ImageJ (NIH). […] Alternatively, the cells were stained with DAPI and microscopic images of whole wells were acquired using DeltaVision system (Applied Precision). Cells were counted using Particle Tracker PlugIn for ImageJ as above (FIG. 13).

tumor xenografts = settings: SecinH3 or cytohesin-2 knock-down; Bill et al.; cited from earlier work
[1] = test system: gefitinib-resistant NSCLC A549 cells; settings: Bill et al. 2012; cited from earlier work
cytohesin-2 = molecular target: T1, cytohesin-2 (Homo sapiens, UniProt Q99418); experiment: Radiolabel-based GEF-activity assay ([35S]-GTPγS binding) of full-length cytohesin-2 with myr-Arf1 or myr-Arf6; assay type: biochemical
T1 construct: steady-state enzymatic GEF-activity analysis of full-length cytohesin-2 or Sec7 domain with Arf1 and Arf6; made in house; host or cells: E. coli BL21DE3
T1 sequence (Q99418 1-400): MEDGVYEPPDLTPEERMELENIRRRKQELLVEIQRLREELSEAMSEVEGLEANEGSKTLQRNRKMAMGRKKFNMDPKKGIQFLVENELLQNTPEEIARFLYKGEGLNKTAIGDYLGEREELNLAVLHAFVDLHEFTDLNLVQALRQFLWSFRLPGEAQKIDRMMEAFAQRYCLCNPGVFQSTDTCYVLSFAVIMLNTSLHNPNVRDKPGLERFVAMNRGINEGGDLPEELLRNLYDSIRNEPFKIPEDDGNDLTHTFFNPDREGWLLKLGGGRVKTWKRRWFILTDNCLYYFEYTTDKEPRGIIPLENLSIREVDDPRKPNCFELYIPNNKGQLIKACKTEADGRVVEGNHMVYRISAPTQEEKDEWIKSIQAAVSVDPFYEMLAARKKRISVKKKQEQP
Procedure: Two assays were used to determine the GDP/GTP-exchange activity of both full-length cytohesin-2 and Sec7 domain.
a) Radiolabel-Based Assay.
The lipids were dissolved in chloroform. […] Proteins were trapped on nitrocellulose filters.
To test the potential signaling between V-ATPase and cytohesin-2/Arf GTP-binding proteins, a GEF-activity assay was established for cytohesin-2 (wt) and myristoylated myr-Arf6 (wt) and myr-Arf1 (wt) GTP-binding proteins (FIG. 2A). Human Arf1 was co-expressed with yeast N-myristoyltransferase in E. coli BL21/DE3 strain. Recombinant myr-Arf1 was purified from the E. coli lysate (A1) using an AKTApurifier equipped with HiTrapQ, Superdex200 columns (A2), and Phenyl Sepharose HP column (A3). Human Arf6 was also co-expressed with yeast N-myristoyltransferase in E. coli BL21/DE3 strain. Recombinant myr-Arf6 was extracted from insoluble fraction using Triton X-100 (B1). The extract was precipitated by 35% ammonium sulfate and myr-Arf6 purified with HiTrapQ column (B2). […] Several soluble, cell permeable and fluorescently labeled a2N1-17 derived peptides were synthesized, which were used in the current GEF-activity and structural studies in vitro.

lung cancer cells = settings: SecinH3 or cytohesin-2 knock-down; Bill et al.; cited from earlier work
EGFR/ErbB-signaling = settings: SecinH3 or cytohesin-2 knock-down; Bill et al.; cited from earlier work
PC-9 xenografts = settings: Bill et al.; cited from earlier work
[2] = molecular target: T2, Sec7 domain of cytohesin-2 (Homo sapiens, UniProt Q99418); experiment: Tryptophan fluorescence-based GTPγS binding (GEF-activity) assay of Sec7 domain; assay type: biochemical; settings: purified Sec7 domain; truncated [Δ17]Arf1 as substrate; read-out: IC50, inhibition of enzymatic GEF-activity of Sec7 with [Δ17]Arf1
T2 construct: The Sec7 domain of human cytohesin-2 (61-252aa) was expressed in BL21/DE3 cells; GST (N, cleaved yes); made in house; host or cells: E. coli BL21/DE3
T2 sequence (Q99418 61-252): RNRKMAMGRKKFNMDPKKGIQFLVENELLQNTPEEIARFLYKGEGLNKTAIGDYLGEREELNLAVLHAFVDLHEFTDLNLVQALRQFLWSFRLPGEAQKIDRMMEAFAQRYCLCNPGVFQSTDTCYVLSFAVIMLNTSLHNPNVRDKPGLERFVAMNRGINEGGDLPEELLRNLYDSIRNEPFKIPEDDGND
Text: b) Tryptophan Fluorescence-Based GTPγS Binding Assay.
In this assay, exchange is followed in real time. […] These are soluble in both GDP and GTP bound forms (myr Arf-GTP requires a hydrophobic surface for stability) allowing exchange to occur in the absence of lipid or detergent, which is desirable because lipid or detergent can scatter light and possibly confound interpretation of changes in fluorescence. To monitor tryptophan fluorescence, the fluorescent spectra of [Δ17]Arf1 in GDP-bound and GTPγS-bound forms were obtained at an excitation wavelength of 285 nm using a PTI spectrofluorimeter. […] Measurements were performed at 37° C. in 50 mM HEPES-KOH, 100 mM KCl, 1 mM MgCl2, 1 mM DTT, 10 μM GTPγS, 1 μM [Δ17]Arf1 or [Δ13]Arf6 and 10 nM Sec7-domain. […] Data were fitted by single exponential curve and analyzed using Microsoft Excel.
This assay allows real-time measurements of the GEF Sec7 domain-induced nucleotide exchange. [Δ17]Arf1 and [Δ13]Arf6, which are soluble in the GTP-bound form, were used as substrates, thereby eliminating the need for phospholipid or detergent in the assay. […] Activation of [Δ17]Arf1 or [Δ13]Arf6 from the GDP-bound form to the GTPγS-bound form was monitored by tryptophan fluorescence (emission/excitation wavelengths of 285/335 nm) (FIG. 3A).

H460 xenografts = settings: Bill et al.; cited from earlier work
[3] = test system: gefitinib-resistant NSCLC H460 cells; settings: Bill et al. 2012; cited from earlier work

IC50 (cytohesin-2; myr-Arf1 as substrate, azolectin, read-out: IC50, inhibition of enzymatic GEF-activity of cytohesin-2 with myr-Arf1): > 150 µM
IC50 (cytohesin-2; myr-Arf6 as substrate, PIP2-containing liposomes, read-out: IC50, inhibition of enzymatic GEF-activity of cytohesin-2 with myr-Arf6): > 150 µM
IC50 [2]: 6.9 µM
Structure (SMILES): COc1nc(-c2ccc3c(c2)OCO3)n(-c2ccc(NC(=O)CSc3ccccc3)cc2)n1 [SecinH3]
inhibition of proliferation of human lung cancer A549 cells (Human NSCLC A549 cells): anti-proliferative action
growth of tumor xenografts in nude mice model in vivo (tumor xenografts): reduction of growth
proliferation of gefitinib-resistant NSCLC A549 cells [1]: efficiently reduced
cancer cell proliferation in vitro (lung cancer cells): suppression
EGFR/ErbB-signaling (EGFR/ErbB-signaling): reduction
action in vivo in mice bearing PC-9 xenografts (PC-9 xenografts): anti-proliferative and pro-apoptotic action
action in vivo in mice bearing H460 xenografts (H460 xenografts): anti-proliferative and pro-apoptotic action
proliferation of gefitinib-resistant NSCLC H460 cells [3]: efficiently reduced
